Reference: patent US20150274719A1, “AMINO-SUBSTITUTED IMIDAZO[1,2-A]PYRIDINECARBOXAMIDES AND THEIR USE” (BAYER PHARMA AKTIENGESELLSCHAFT, priority 2012, published 2015)

Molecular target: T1, recombinant guanylate cyclase reporter cell line (Rattus norvegicus, UniProt P19686+P20595)
T1 construct: expressed in transfected cells; host or cells: recombinant reporter cell line
T1 sequence (P19686 1-690): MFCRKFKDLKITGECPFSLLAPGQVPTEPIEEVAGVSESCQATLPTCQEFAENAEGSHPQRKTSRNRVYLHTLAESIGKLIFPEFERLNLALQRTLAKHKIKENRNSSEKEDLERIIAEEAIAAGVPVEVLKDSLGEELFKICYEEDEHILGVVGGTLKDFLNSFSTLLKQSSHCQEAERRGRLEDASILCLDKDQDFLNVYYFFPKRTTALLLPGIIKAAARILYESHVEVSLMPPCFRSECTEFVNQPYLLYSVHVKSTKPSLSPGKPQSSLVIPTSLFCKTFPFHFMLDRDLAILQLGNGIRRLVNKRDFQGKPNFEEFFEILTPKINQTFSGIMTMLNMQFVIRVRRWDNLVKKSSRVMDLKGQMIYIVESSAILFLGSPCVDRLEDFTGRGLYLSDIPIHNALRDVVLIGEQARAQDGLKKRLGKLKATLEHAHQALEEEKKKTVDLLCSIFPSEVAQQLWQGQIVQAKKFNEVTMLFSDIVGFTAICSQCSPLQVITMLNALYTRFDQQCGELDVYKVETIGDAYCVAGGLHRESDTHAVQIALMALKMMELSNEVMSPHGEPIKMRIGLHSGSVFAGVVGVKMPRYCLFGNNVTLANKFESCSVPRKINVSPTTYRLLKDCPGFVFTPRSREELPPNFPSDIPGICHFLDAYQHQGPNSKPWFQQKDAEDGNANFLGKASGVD
T1 sequence (P20595 1-619): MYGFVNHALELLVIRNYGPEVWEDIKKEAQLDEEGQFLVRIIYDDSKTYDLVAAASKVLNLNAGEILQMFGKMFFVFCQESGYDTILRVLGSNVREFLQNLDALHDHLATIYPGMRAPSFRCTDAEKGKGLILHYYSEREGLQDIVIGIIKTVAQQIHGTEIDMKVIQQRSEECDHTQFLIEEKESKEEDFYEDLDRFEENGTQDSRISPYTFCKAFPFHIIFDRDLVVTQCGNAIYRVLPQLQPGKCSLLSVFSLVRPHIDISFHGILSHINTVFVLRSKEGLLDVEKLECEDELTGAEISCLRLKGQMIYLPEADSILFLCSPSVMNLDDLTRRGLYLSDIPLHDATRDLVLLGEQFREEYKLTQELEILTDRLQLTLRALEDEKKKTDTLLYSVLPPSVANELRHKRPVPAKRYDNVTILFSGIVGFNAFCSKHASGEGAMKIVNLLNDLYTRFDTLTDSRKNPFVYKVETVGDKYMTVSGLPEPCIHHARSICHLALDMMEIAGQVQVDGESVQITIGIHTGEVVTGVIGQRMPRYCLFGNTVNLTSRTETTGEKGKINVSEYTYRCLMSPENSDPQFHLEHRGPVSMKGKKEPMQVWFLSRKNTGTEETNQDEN
Test: Action on recombinant guanylate cyclase reporter cell line
Assay type: cell-based
Conditions: in some cases mean values from individual determinations
Method in brief: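 Read-out: MEC (minimal effective concentration) in cells. Reporter line carries recombinant sGC. Some values are averages of single runs.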

Row | SMILES | MEC (minimal effective concentration)
1 | Cc1nc2c(OCc3c(F)cccc3F)cccn2c1C(=O)NCC(C)N1CCOCC1 (single isomer, unassigned; ent-8) [Example 180, ent-8-[(2,6-Difluorobenzyl)oxy]-2-methyl-N-[2-(morpholin-4-yl)propyl]imidazo[1,2-a]pyridine-3-carboxamide] | 1.00 µM
2 | Cc1nc2c(OCc3c(F)cccc3F)cccn2c1C(=O)NCC(C)N1CCOCC1 (single isomer, unassigned; ent-8) [Example 181, ent-8-[(2,6-Difluorobenzyl)oxy]-2-methyl-N-[2-(morpholin-4-yl)propyl]imidazo[1,2-a]pyridine-3-carboxamide] | 1.00 µM
3 | Cc1nc2c(OCc3c(F)cccc3F)cccn2c1C(=O)NC(CN1CCOCC1)c1ccccc1 (single isomer, unassigned; ent-8) [Example 182, ent-8-[(2,6-Difluorobenzyl)oxy]-2-methyl-N-[2-(morpholin-4-yl)-1-phenylethyl]imidazo[1,2-a]-pyridine-3-carboxamide] | 3.00 µM
4 | Cc1nc2c(OCc3c(F)cccc3F)cccn2c1C(=O)NC(CN1CCOCC1)c1ccccc1 (single isomer, unassigned; ent-8) [Example 183, ent-8-[(2,6-Difluorobenzyl)oxy]-2-methyl-N-[2-(morpholin-4-yl)-1-phenylethyl]imidazo[1,2-a]-pyridine-3-carboxamide] | 1.00 µM
5 | Cc1cc(OCc2c(F)cccc2F)c2nc(C)c(C(=O)NCC(C)N3CCOCC3)n2c1 (single isomer, unassigned; ent-8) [Example 186, ent-8-[(2,6-Difluorobenzyl)oxy]-2,6-dimethyl-N-[2-(morpholin-4-yl)propyl]imidazo[1,2-a]-pyridine-3-carboxamide] | 0.30 µM
6 | Cc1cc(OCc2c(F)cccc2F)c2nc(C)c(C(=O)NCC(C)N3CCOCC3)n2c1 (single isomer, unassigned; ent-8) [Example 187, ent-8-[(2,6-Difluorobenzyl)oxy]-2,6-dimethyl-N-[2-(morpholin-4-yl)propyl]imidazo[1,2-a]-pyridine-3-carboxamide] | 0.30 µM
7 | Cc1nc2c(OCc3c(F)cccc3F)cccn2c1C(=O)NCC(C(C)C)N(C)C (single isomer, unassigned; ent-8) [Example 188, ent-8-[(2,6-Difluorobenzyl)oxy]-N-[2-(dimethylamino)-3-methylbutyl]-2-methylimidazo[1,2-a]-pyridine-3-carboxamide] | 1.00 µM
8 | Cc1nc2c(OCc3c(F)cccc3F)cccn2c1C(=O)NCC(C(C)C)N(C)C (single isomer, unassigned; ent-8) [Example 189, ent-8-[(2,6-Difluorobenzyl)oxy]-N-[2-(dimethylamino)-3-methylbutyl]-2-methylimidazo[1,2-a]-pyridine-3-carboxamide] | 3.00 µM
9 | Cc1nc2c(OCc3c(F)cccc3F)cccn2c1C(=O)NC(CNCC(F)(F)F)c1ccc(F)c(F)c1 (single isomer, unassigned; ent-8) [Example 222, ent-8-[(2,6-Difluorobenzyl)oxy]-N-{1-(3,4-difluorophenyl)-2-[(2,2,2-trifluoroethyl)amino]ethyl}-2-methylimidazo[1,2-a]pyridine-3-carboxamide] | 0.30 µM
10 | CCC1CC(NC(=O)c2c(C)nc3c(OCc4c(F)cccc4F)cc(C)cn23)c2nc(C(F)(F)F)ccc2N1 (single isomer, unassigned; ent-8) [Example 325, ent-8-[(2,6-Difluorobenzyl)oxy]-N-[2-ethyl-6-(trifluoromethyl)-1,2,3,4-tetrahydro-1,5-naphthyridin-4-yl]-2,6-dimethylimidazo[1,2-a]pyridine-3-carboxamide] | 0.30 µM
11 | Cc1nc2c(OCc3c(F)cccc3F)cccn2c1C(=O)NC1CC2CCCC(C1)N2C1CC1 (stereo not shown) [Example 1, N-(9-Cyclopropyl-9-azabicyclo[3.3.1]non-3-yl)-8-[(2,6-difluorobenzyl)oxy]-2-methylimidazo[1,2-a]pyridine-3-carboxamide] | 0.10 µM

The remaining lines, values ahead:

Row | MEC (minimal effective concentration) | SMILES
12 | 1.00 µM | Cc1nc2c(OCc3c(F)cccc3F)cccn2c1C(=O)NC1CNc2ccccc2C1 (single isomer, unassigned; ent-8) [Example 81, ent-8-[(2,6-Difluorobenzyl)oxy]-2-methyl-N-(1,2,3,4-tetrahydroquinolin-3-yl)imidazo[1,2-a]-pyridine-3-carboxamide]
13 | 0.30 µM | Cc1nc2c(OCc3c(F)cccc3F)cccn2c1C(=O)NC1CCNc2ccc(F)cc21 (single isomer, unassigned; ent-8) [Example 105, ent-8-[(2,6-difluorobenzyl)oxy]-N-(6-fluoro-1,2,3,4-tetrahydroquinolin-4-yl)-2-methylimidazo[1,2-a]pyridine-3-carboxamide]
14 | 0.03 µM | Cc1nc2c(OCc3c(F)cccc3F)cccn2c1C(=O)NC1CCNc2ccc(F)cc21 (single isomer, unassigned; ent-8) [Example 106, ent-8-[(2,6-difluorobenzyl)oxy]-N-(6-fluoro-1,2,3,4-tetrahydroquinolin-4-yl)-2-methylimidazo[1,2-a]pyridine-3-carboxamide]
15 | 1.00 µM | Cc1nc2c(OCc3c(F)cccc3F)cccn2c1C(=O)NC1CNCc2ccccc21 (single isomer, unassigned; ent-8) [Example 109, ent-8-[(2,6-difluorobenzyl)oxy]-2-methyl-N-(1,2,3,4-tetrahydroisoquinolin-4-yl)imidazo[1,2-a]pyridine-3-carboxamide]
16 | 0.30 µM | Cc1nc2c(OCc3c(F)cccc3F)cccn2c1C(=O)NC1CNCc2ccccc21 (single isomer, unassigned; ent-8) [Example 110, ent-8-[(2,6-difluorobenzyl)oxy]-2-methyl-N-(1,2,3,4-tetrahydroisoquinolin-4-yl)imidazo[1,2-a]pyridine-3-carboxamide]
17 | 1.00 µM | Cc1nc2c(OCc3c(F)cccc3F)cccn2c1C(=O)NC1CCNc2ccc(C(F)(F)F)cc21 (single isomer, unassigned; ent-8) [Example 111, ent-8-[(2,6-difluorobenzyl)oxy]-2-methyl-N-[6-(trifluoromethyl)-1,2,3,4-tetrahydroquinolin-4-yl]imidazo[1,2-a]pyridine-3-carboxamide]
18 | 0.10 µM | Cc1nc2c(OCc3c(F)cccc3F)cccn2c1C(=O)NC1CCNc2ccc(C(F)(F)F)cc21 (single isomer, unassigned; ent-8) [Example 112, ent-8-[(2,6-difluorobenzyl)oxy]-2-methyl-N-[6-(trifluoromethyl)-1,2,3,4-tetrahydroquinolin-4-yl]imidazo[1,2-a]pyridine-3-carboxamide]
19 | 0.30 µM | Cc1cc(OCc2c(F)cccc2F)c2nc(C)c(C(=O)NC3CC(C)Nc4ccc(C(F)(F)F)nc43)n2c1 (single isomer, unassigned; ent-8) [Example 326, ent-8-[(2,6-Difluorobenzyl)oxy]-2,6-dimethyl-N-[2-methyl-6-(trifluoromethyl)-1,2,3,4-tetrahydro-1,5-naphthyridin-4-yl]imidazo[1,2-a]pyridine-3-carboxamide]
